Measurements published in ChEMBL document CHEMBL1157260, “Cytotoxic diterpenes from Cassipourea madagascariensis from the Madagascar rainforest” (J Nat Prod, 2006).
Values after ≈ are worked out from the molar mass of the structure shown.

Test system: A2780
Test: Cytotoxicity against human A2780 cells by clonogenic assay
Type: functional, cell-based

SMILES | IC50 [µg/mL]
C=C(CO)[C@@H]1CC[C@]2(C)CC[C@]3(C)[C@H](CC[C@@H]4[C@@]5(C)CCC(=O)C(C)(C)[C@@H]5CC[C@]43C)[C@@H]12 | 16.4 (≈ 37.2 µM)
CC(=O)OC/C=C(\C)CCCC(C)CC[C@H]1[C@@H](C)CCCC1(C)C (stereo not given in full) [CASSIPOURYL ACETATE] | 2.8
COc1cc(O)c2c(=O)c(OC)c(-c3cc(OC)c(OC)c(OC)c3)oc2c1 [COMBRETOL] | 8.7 (≈ 22.4 µM)
C/C(=C\CO)CCCC(C)CC[C@H]1[C@@H](C)CCCC1(C)C (stereo not given in full) [CASSIPOUROL] | 2.4 (≈ 8.15 µM)
C=C(CO)[C@@H]1CC[C@]2(C)CC[C@]3(C)[C@H](CC[C@@H]4[C@@]5(C)CC[C@H](O)C(C)(C)[C@@H]5CC[C@]43C)[C@@H]12 | 12.2 (≈ 27.6 µM)
